In paper PMC6981454, “Promising 2,6,9-Trisubstituted Purine Derivatives for Anticancer Compounds: Synthesis, 3D-QSAR, and Preliminary Biological Assays” (International Journal of Molecular Sciences, 2019):
Like-named read-outs stand apart in the source and are kept apart here.

Columns and labels:
[1] = target: Hedgehog (Hh) signaling pathway; design: method as in PMID 24923765; conditions: cited from earlier work
CACO2 = experiment: MTT cytotoxicity assay, 72 h; format: cell-based, human; conditions: Homo sapiens, Caco-2, IC50 ± SD
NCI-H460 = experiment: MTT cytotoxicity assay, 72 h; format: cell-based, human; conditions: for Selectivity Index (SI) MRC-5/NCI-H460: IC50 in MRC-5 / IC50 in NCI-H460
Method: (§1) In our study, the human cancer cell lines used were CFAPC- 1 (pancreatic adenocarcinoma); NCI-H460 (large cell lung); HL-60 (acute promyelocytic leukaemia); CACO2 (colorectal adenocarcinoma); HCT-116 (colorectal carcinoma); K562 (chronic myeloid leukaemia); MCF-7 (breast adenocarcinoma); and MRC-5 control cells (normal fibroblasts).
(§2) CFAPC-1, NCI-H460 H1975, HL-60, HCT-116, CACO2, K562, MCF-7, and MCR-5 were grown and maintained in RPMI 1640 and DMEM F12 as appropriate with 10% fetal bovine serum, 100 UI/mL penicillin–streptomycin, and cultured al 37 °C in 5% CO2 humidified atmosphere. Control cultures were treated with dimethyl sulfoxide (1%) alone at the same concentration as in the purine derivatives treatment. Cell viability was determined by trypan blue dye exclusion. Cell numbers were counted in hemocytometer by light microscopy.
(§3) Cytotoxicity assays were performed by using the MTT reduction method as described in the literature. Briefly, cancer cell lines were plated in a flat-bottom 96-wells plate at 1 × 10^4 cells per well density. Then, the cells were incubated with synthetized compounds at different concentrations (from 0.1 to 100 µM) in 200 µL of 10% fetal bovine serum-RPMI or EMEM culture medium at 37 °C for 72 h. Then, 10 µL of MTT was added at a final concentration of 0.5 mg/mL, incubated at 37 °C for 4 h, and then solubilized with 10% sodium dodecyl sulphate (SDS) in 0.1 mM HCl and incubated overnight at 37 °C. Formazan formation was measured at 570 nm in a multi-well reader (StatFax 4200).

CFPAC-1 = experiment: MTT cytotoxicity assay, 72 h; format: cell-based, human; conditions: Homo sapiens, CFPAC-1, IC50 ± SD
Method: as §1, §2, §3

MCF-7 = experiment: MTT cytotoxicity assay, 72 h; format: cell-based, human; conditions: for IC50: Homo sapiens, MCF7, 72 h, MTT, 72 h, IC50 ± SD; for Selectivity Index (SI) MRC-5/MCF-7: IC50 in MRC-5 / IC50 in MCF-7
Method: as §1, §2, §3

HL-60 = experiment: MTT cytotoxicity assay, 72 h; format: cell-based, human; conditions: for IC50: Homo sapiens; for Selectivity Index (SI) MRC-5/HL-60: IC50 in MRC-5 / IC50 in HL-60
Method: as §1, §2, §3

K562 = experiment: MTT cytotoxicity assay, 72 h; format: cell-based, human; conditions: for IC50: MTT, 72 h, IC50 ± SD; for Selectivity Index (SI) MRC-5/K562: IC50 in MRC-5 / IC50 in K562
Method: as §1, §2, §3

HCT-116 = experiment: MTT cytotoxicity assay, 72 h; format: cell-based, human; conditions: Homo sapiens, HCT-116, IC50 ± SD
Method: as §1, §2, §3

MRC-5 = experiment: MTT cytotoxicity assay, 72 h, normal control cells; format: cell-based, human; conditions: Homo sapiens, MRC5, IC50 ± SD, normal fibroblasts
Method: as §1, §2, §3

MCF7 cells = experiment: Cell cycle distribution of MCF7 cells; format: cell-based, human; conditions: Figure S5
pERK1/2 = experiment: Western blotting of pERK1/2 in MCF-7 cells; format: cell-based, human; conditions: 10 µM, 1 h
Method: Cell lysates were prepared by harvesting cells in Laemmli sample buffer. Proteins were separated on SDS polyacrylamide gels and electroblotted onto nitrocellulose membranes. After blocking, the membranes were incubated with specific primary antibodies overnight, washed, and then incubated with peroxidase-conjugated secondary antibodies. Finally, peroxidase activity was detected with SuperSignal West Pico reagents (Thermo Scientific, Waltham, MA, USA) using a CCD camera LAS-4000 (Fujifilm). Specific antibodies were purchased from Sigma-Aldrich (anti-α-tubulin, clone DM1A; peroxidase-labeled secondary antibodies) and Cell Signaling (anti-PARP, clone 46D11; anti-ERK1/2; anti-phospho-ERK1/2 T202/Y204).

HL-60 cells = experiment: Cell viability by propidium iodide flow cytometry; format: cell-based, human; conditions: HL-60, 50 μM, 24 h, PI staining
From the text: Next, in order to determinate the cell death type induced by the most promising compounds, we performed a flow cytometry analysis of cell viability in cell line HL-60 treated with the most promising compounds (selected according to their IC50 values and SI). The HL-60 cancer cells were chosen due to their sensitivity to prepared compounds. […] As a preliminary apoptosis filter, propidium iodide (PI) staining was used through flow cytometry analysis which discriminated a population of viable cells impermeable to PI (PI negative) from necrotic cells PI-permeable (PI positive) and apoptotic cells (the difference of the previous two). The results are shown in Figure 7, illustrating that all purine derivatives tested induced apoptosis on HL-60 cells. Around 40% of apoptotic cells were detected in a culture treated with compounds 7a and 7i, 30% by 7e, 7g, and 7h and 70% by 7d and 7j. […] (For dot plots, see Supplementary Information Figures S1–S3.)
Cell viability was analyzed by flow cytometry as previously described. In this assay, after setting the baseline to exclude cell debris, cells impermeable to propidium iodide (PI negative) are considered as viable. Two populations of PI-permeable dead cells are distinguished based on fluorescence intensity, corresponding to either hypodiploid apoptotic cells or necrotic cells with intact DNA. Here, HL60 cells were incubated with concentrations of 50 µM of each compound for 24 h at 37 °C. Cells were harvested and stained with 10 µg/mL of propidium iodide to determine cell viability. Samples containing roughly 1 × 10^4 cells were evaluated by flow cytometry (FACScanto II; Becton Dickinson, Mountain View, CA) and analyzed using FCS Express v6 software. Three independent biological replicates were performed.

[2] = Homo sapiens, NCI-H460, 72 h, MTT, 72 h, IC50 ± SD, read-out: IC50 NCI-H460
[3] = Homo sapiens, NCI-H460, -logIC50 in molar concentration, Table S2, read-out: Experimental pIC50 (NCI-H460) (converted)
[4] = MTT, 72 h, IC50 ± SD, read-out: IC50 NCI-H460
[5] = HL-60, 72 h, MTT, 72 h, IC50 ± SD, read-out: IC50 HL-60
[6] = HL-60, -logIC50 in molar concentration, Table S1, read-out: Experimental pIC50 (HL-60) (converted)

| melting point [°C] | SMILES | IC50 (CACO2) [µM] | IC50 (NCI-H460; [2]) [µM] | IC50 (NCI-H460; [3]) [µM] | Selectivity Index (SI) MRC-5/NCI-H460 (NCI-H460) | IC50 (NCI-H460; [4]) [µM] | IC50 (CFPAC-1) [µM] | IC50 (MCF-7) [µM] | Selectivity Index (SI) MRC-5/MCF-7 (MCF-7) | IC50 (HL-60; [5]) [µM] | IC50 (HL-60; [6]) [µM] | Selectivity Index (SI) MRC-5/HL-60 (HL-60) | IC50 (K562; Homo sapiens, K562, 72 h) [µM] | Selectivity Index (SI) MRC-5/K562 (K562) | IC50 (HCT-116) [µM] | IC50 (MRC-5) [µM] | apoptotic cells (HL-60 cells) | further results |
| --- | --- | --- | --- | --- | --- | --- | --- | --- | --- | --- | --- | --- | --- | --- | --- | --- | --- | --- |
| – | CCNCc1ccc(C)c(NC(=O)c2ccc(Nc3nc(-c4ccc(OC(F)(F)F)cc4)c4ncn(C)c4n3)cc2)c1 [V] | – | – | – | – | – | – | – | – | – | – | – | – | – | – | – | – | IC50 in Gli-luciferase reporter assay [1]: nanomolar scale |
| 160 to 162 | FC(F)(F)c1ccc(N2CCN(c3nc(Cl)nc4c3ncn4C3CCCC3)CC2)nc1 [7c, 2-Chloro-9-cyclopentyl-6-(4-(5-(trifluoromethyl)pyridin-2-yl)piperazin-1-yl)-9H-purine] | > 100 | 4.8 | 4.79 | 11.7 | 4.79 ± 0.07 | > 100 | 0.52 ± 0.05 | 107.7 | 17 ± 2.3 | 17 | 3.3 | 0.4 to 1.5 | 143.6 | > 50 | 56 ± 1 | – | IC50 (K562): 0.39 ± 0.03 µM |
| – | Clc1ccc(N2CCN(c3nc(Cl)nc4c3ncn4C3CCCC3)CC2)cc1 [7g, 2-Chloro-6-(4-(4-chlorophenyl)piperazin-1-yl)-9-cyclopentyl-9H-purine] | > 100 | 2.2 | 2.21 | 1.1 | 2.21 ± 0.03 | > 100 | 0.97 ± 0.07 | 2.6 | 0.3 ± 0.06 | 0.3 | 8.5 | 0.71 ± 0.07 | 3.6 | > 50 | 2.54 ± 0.17 | ~30% | population of MCF7 cells in the G1-phase (MCF7 cells): slightly increased; level of mitogenic transducer pERK1/2 (pERK1/2): potently reduced |
| 72 to 74 | CCCCn1cnc2c(-c3ccc(OC(F)(F)F)cc3)nc(NC3CCCCCC3)nc21 [4i, 9-Butyl-N-cycloheptyl-6-(4-(trifluoromethoxy)phenyl)-9H-purin-2-amine] | > 100 | > 100 | – | – | – | > 100 | > 25 | – | 19 ± 3.9 | 19 | – | > 25 | – | > 50 | > 100 | – | – |
| 68 to 70 | CCCCCCn1cnc2c(-c3ccc(OC(F)(F)F)cc3)nc(NC3CCCCCC3)nc21 [4k, N-cycloheptyl-9-Hexyl-6-(4-(trifluoromethoxy)phenyl)-9H-purin-2-amine] | > 100 | > 100 | – | – | – | > 100 | > 25 | – | 12 ± 0.6 | 12 | – | > 25 | – | > 50 | > 100 | – | – |
| – | O=[N+]([O-])c1ccc(N2CCN(c3nc(Cl)nc4c3ncn4C3CCCC3)CC2)nc1 [7a, 2-Chloro-9-cyclopentyl-6-(4-(5-nitropyridin-2-yl)piperazin-1-yl)-9H-purine] | > 100 | < 10 | 5.73 | > 17.5 | 5.73 ± 0.37 | > 100 | 0.95 ± 0.14 | > 105 | – | 2.1 | > 47.6 | 0.87 ± 0.01 | > 115 | 6.4 ± 1.3 | > 100 | Around 40% | – |
